Here are results for 16 molecules from ChEMBL document CHEMBL5046293 (J Med Chem, 2022).

Data set [1] is described as follows: Stability of compound in 0.01 M PBS buffer at 50 uM measured after 4 hrs by LC-MS analysis (reference value: 99.2 %). Format: physicochemical. The note with it: read-out: Stability.
The nature of data set [2]: Stability of compound in 0.01 M PBS buffer at 50 uM measured after 52 hrs by LC-MS analysis (reference value: 99.2 %). Type of data set: physicochemical. To be noted: read-out: Stability.
A short description of data set [3]: Cytotoxicity against human BLEC monolayers at 50 uM incubated for 1 hr. Type of data set: toxicity, cell-based. The note with it: brain-like endothelial cells.
The nature of data set [4]: Stability of compound in 0.01 M PBS buffer at 50 uM measured after 4 hrs by LC-MS analysis (reference value: 98.7 %). Type of data set: physicochemical. The note with it: read-out: Stability.
The nature of data set [5]: Stability of compound in 0.01 M PBS buffer at 50 uM measured after 52 hrs by LC-MS analysis (reference value: 98.7 %). Format: physicochemical. To be noted: read-out: Stability.

On to `OC[C@H]1O[C@@H](OCCCCc2cn(CCCc3ccc(O)c(/C=N/O)n3)nn2)[C@H](O)[C@@H](O)[C@@H]1O`, for which, in data set [1], the remaining at 4 h, 50 µM is 96.7%. For the same molecule, the remaining at 52 h, 50 µM in data set [2] worked out at 90.9%. Besides, the Activity entry in data set [3] is on record as “Non-Toxic”.

`OC[C@H]1O[C@@H](OCCCCc2cn(CCCCc3ccc(O)c(/C=N/O)n3)nn2)[C@H](O)[C@@H](O)[C@@H]1O`: the Activity entry in data set [3] was “Non-Toxic”.

Consider `C#CCCO[C@@H]1O[C@H](CO)[C@@H](O)[C@H](O)[C@H]1O`, for which the Activity entry in data set [3] is listed as “Non-Toxic”.

On to `Cn1cc(CCCCO[C@@H]2O[C@H](CO)[C@@H](O)[C@H](O)[C@H]2O)nn1`, for which, in data set [3], the Activity entry was “Non-Toxic”.

`Cn1cc(CCCCO[C@@H]2O[C@H](CO)[C@@H](O)[C@H]2O)nn1`: in data set [3], the Activity entry is listed as “Non-Toxic”.

For `OC[C@H]1O[C@H](OCCCCc2cn(CCCCc3ccc(O)c(/C=N/O)n3)nn2)[C@H](O)[C@@H](O)[C@@H]1O`, in data set [3], the Activity result is “Non-Toxic”.

`C#CCCCCO[C@@H]1O[C@H](CO)[C@@H](O)[C@H](O)[C@H]1O`: the Activity entry in data set [3] is “Non-Toxic”.

As to `C#CCCCCO[C@@H]1O[C@H](CO)[C@@H](O)[C@H]1O`, the Activity entry in data set [3] is “Non-Toxic”.

`OC[C@H]1O[C@@H](OCCCc2ccc(O)c(/C=N/O)n2)[C@H](O)[C@@H](O)[C@@H]1O`: the remaining at 4 h, 50 µM in data set [4] stood at 97.8%. Further, in data set [5], the remaining at 52 h, 50 µM was 91.4%. The Activity entry in data set [3] is reported as “Non-Toxic”.

As to `Cn1cc(CCO[C@@H]2O[C@H](CO)[C@@H](O)[C@H](O)[C@H]2O)nn1`, the Activity entry in data set [3] is given as “Non-Toxic”.

For `Cn1cc(CCCCOC[C@H]2O[C@@H](O)[C@H](O)[C@@H](O)[C@@H]2O)nn1`, the Activity result in data set [3] is on record as “Non-Toxic”.

As for `OC[C@H]1O[C@@H](OCCCCc2ccc(O)c(/C=N/O)n2)[C@H](O)[C@@H](O)[C@@H]1O`, the Activity result in data set [3] is on record as “Non-Toxic”.

Regarding `Cn1cc(CCCCO[C@H]2O[C@H](CO)[C@@H](O)[C@H](O)[C@H]2O)nn1`, the Activity result in data set [3] is recorded as “Non-Toxic”.

Turning to `OC[C@H]1O[C@@H](OCCCCc2cn(CCCCc3ccc(O)c(/C=N/O)n3)nn2)[C@H](O)[C@@H]1O`, in data set [3], the Activity result is on record as “Non-Toxic”.

Regarding `OC[C@H]1O[C@@H](OCCCCCc2ccc(O)c(/C=N/O)n2)[C@H](O)[C@@H]1O`, in data set [3], the Activity result was “Non-Toxic”.

Turning to `C#CCCCCO[C@H]1O[C@H](CO)[C@@H](O)[C@H]1O`, the Activity result in data set [3] is on record as “Non-Toxic”.
